Measured values reported in article PMC6891447, “Andean Prumnopitys Andina (Podocarpacae) Fruit Extracts: Characterization of Secondary Metabolites and Potential Cytoprotective Effect” (Molecules, 2019).
Read-outs that look alike come from different tables or passages of the source.

Key:
α-amylase = target: T1, α-amylase (Sus scrofa, UniProt P00690); assay: α-Amylase inhibition assay; type: biochemical, porcine; settings: Sephadex fractions
T1 construct: purchased Sigma-Aldrich A3176; host or cells: porcine pancreas
T1 sequence (P00690 16-511): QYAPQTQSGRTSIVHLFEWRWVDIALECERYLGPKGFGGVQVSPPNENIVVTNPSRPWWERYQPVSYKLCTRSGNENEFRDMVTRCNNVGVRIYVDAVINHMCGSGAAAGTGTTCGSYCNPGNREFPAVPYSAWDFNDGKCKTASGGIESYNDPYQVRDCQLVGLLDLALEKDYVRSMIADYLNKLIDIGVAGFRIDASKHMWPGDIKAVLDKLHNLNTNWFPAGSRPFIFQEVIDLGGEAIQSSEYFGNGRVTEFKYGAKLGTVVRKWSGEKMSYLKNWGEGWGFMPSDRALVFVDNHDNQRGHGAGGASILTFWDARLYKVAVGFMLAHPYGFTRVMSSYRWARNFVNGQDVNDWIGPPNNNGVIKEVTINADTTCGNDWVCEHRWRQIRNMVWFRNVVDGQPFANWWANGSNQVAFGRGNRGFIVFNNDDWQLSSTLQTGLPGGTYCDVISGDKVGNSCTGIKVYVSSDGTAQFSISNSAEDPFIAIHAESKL

[1] = Scavenging of the ABTS radical (TEAC) assay; type: physicochemical
Description: (§1) The antioxidant capacity of the extracts was evaluated by the discoloration of the DPPH radical, the ferric reducing power (FRAP), the scavenging of the ABTS radical (TEAC) and the oxygen radical absorbance capacity (ORAC). […] Trolox and quercetin were used as reference compounds. The DPPH, FRAP and TEAC assays were performed according to Jiménez-Aspee et al.. The ORAC assay was carried out following the methodology of Ou et al. with slight modifications. All determinations were carried out in triplicate and results are presented as mean values ± standard deviation (SD).

α-glucosidase = α-glucosidase (Saccharomyces cerevisiae, UniProt P53341); assay: α-Glucosidase inhibition assay; type: biochemical; settings: read-out: α-Glucosidase Inhibition (percentage of inhibition)
Excerpt: The chemicals, enzymes and reagents acquired from Sigma-Aldrich (St. Louis, MO, USA) were the following: α-amylase from porcine pancreas (A3176; EC 3.2.1.1), α-glucosidase from Saccharomyces cerevisiae (G5003; EC 3.2.1.20), acetic acid, AlCl3, Amberlite XAD7 HP, catechin, DPPH (2,2-diphenyl-1-picrylhydrazyl radical), 3,5-dinitrosalicylic acid, porcine pancreas lipase type II (L-3126; EC 3.1.1.3), Na2CO3, 4-nitrophenyl-α-D-glucopyranoside, p-nitrophenyl palmitate, p-anisaldehyde, quercetin, sodium acetate, starch, 2,4,6-tri(2-pyridyl)1,3,5-triazine (TPTZ), trichloracetic acid, thiobarbituric acid, and triton X-100. The following materials were purchased from Merck (Darmstadt, Germany): 6-hydroxy-2,5,7,8-tetramethylchroman-2-carboxylic acid (Trolox), ethyl acetate, FeCl3 × 6H2O, potassium sodium tartrate and HPLC-grade methanol. Pepsin A (P3271) was from US Biological (Salem, MA, USA). […]
Potential inhibition of α-glucosidase by XAD7 extracts and fractions from the LH-20 column was tested under conditions that simulate, at least in part, those of the small intestine. […] Resulting enzyme activity was then measured by adding 20 µL of 5 mM p-nitrophenyl-α-D-glucopyranoside into the wells and incubating for additional 15 min at 37 °C. […] Final absorbance was measured at 415 nm in a Biotek ELx801 (Winooski, VT, USA) microplate reader. […]

[2] = DPPH radical discoloration (scavenging) assay; type: physicochemical
Description: as §1

[3] = Oxygen radical absorbance capacity (ORAC) assay; type: physicochemical
Description: as §1

pancreatic lipase = target: T2, pancreatic lipase (Sus scrofa, UniProt P00591); assay: Pancreatic lipase inhibition assay; type: biochemical, porcine; settings: Sephadex fractions
T2 construct: purchased Sigma-Aldrich L-3126; host or cells: porcine pancreas
T2 sequence (P00591 1-450): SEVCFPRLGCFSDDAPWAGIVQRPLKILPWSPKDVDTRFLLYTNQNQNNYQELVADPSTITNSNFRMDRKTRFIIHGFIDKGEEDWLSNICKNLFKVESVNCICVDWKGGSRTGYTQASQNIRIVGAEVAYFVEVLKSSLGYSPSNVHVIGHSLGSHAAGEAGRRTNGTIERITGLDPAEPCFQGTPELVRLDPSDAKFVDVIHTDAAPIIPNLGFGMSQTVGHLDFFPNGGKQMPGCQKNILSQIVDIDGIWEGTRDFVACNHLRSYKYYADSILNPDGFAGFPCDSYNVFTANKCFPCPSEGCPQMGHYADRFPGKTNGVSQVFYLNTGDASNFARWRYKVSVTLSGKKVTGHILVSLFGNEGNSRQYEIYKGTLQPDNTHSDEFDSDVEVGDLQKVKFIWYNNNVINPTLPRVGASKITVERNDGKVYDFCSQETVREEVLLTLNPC

[4] = Ferric reducing power (FRAP) assay; type: physicochemical
Description: as §1

[5] = TBARS generation in turkey meat under simulated gastric digestion; settings: pH 3.0, 37 °C, 1 h
Description: This assay was carried out according to Kanner et al., with slight modifications. Briefly, the simulated gastric fluid (SGF) contained final concentration of NaCl (0.2% w/v), pepsin (0.32% w/v) and 700 µL of HCl (37%), adjusted to a final volume of 100 mL with ultrapure water. Thirty grams of turkey meat were ground with 90 mL of the SGF solution for 1 min in a blender and adjusted to pH 3.0 with 100 µL of 7N HCl. Fifteen mL of the SGF-meat mixture was aliquoted in 100 mL Erlenmeyer flasks. The powdered extract was weighed and added to the homogenate (meat–liquid mixture) to achieve final concentrations ranging from 0–500 µg/mL in the 15 mL SGF-meat mixture. The P. andina sample consisted in a pool of the extracts from different collection years. The flasks were placed in a shaking water bath at 37 °C during 1 h. At the end of the incubation, 800 µL of the samples, controls (without extracts) and blanks (without meat) were centrifuged at 20,000× g for 15 min at 4 °C. Lipid peroxidation was determined quantifying TBARS. For this purpose, the supernatant resulting from the centrifugation (750 µL) was mixed with 750 µL of TBA solution (0.37% TBA, 15% trichloroacetic acid in 0.25 N HCl), and boiled during 20 min. The absorbance was determined at 532 nm. All determinations were carried out in triplicate and results are presented as IC50 values (μg extracts/mL) ±SD. […]

AGS cells [6] = assay: Intracellular total antioxidant activity (TAA) in AGS cells; type: cell-based, human; settings: rutin 100 µg/mL; non-significant
Description: The TAA was carried out according to Ferrari et al.. AGS cells were plated at 25,000 cells/mL in 3 cm diameter Petri dishes. One day after confluence, AGS cells were pre-incubated overnight (16 h) with 3 mL of the pool of P. andina XAD7 extracts, in different concentrations (0–400 µg extract/mL). For comparison purposes, rutin (100 µg/mL) was also included in this experiment. All samples were prepared in medium supplemented with 2% FBS. Cells treated only with culture medium were used as the control of the basal antioxidant level. The next morning, cells were collected with a cell scraper and centrifuged at 900× g during 5 min. […]
The ABTS radical was prepared by mixing 5 mL of a 7.46 mM ABTS solution with 88 μL of a 140 mM potassium persulfate solution. […] At the end of the incubation, the solution was diluted with MeOH until an absorbance value of 0.700 ± 0.050 at 734 nm was reached. […] After 6 min, absorbance was measured at 734 nm in a UV–Vis spectrophotometer. The absorbance was interpolated and converted to Trolox equivalents using a Trolox calibration curve. […] All the determinations were carried out in triplicate and results were expressed as µmol Trolox equivalents/mg protein ±SD.

AGS cells [7] = assay: Cytoprotection against H2O2-induced stress in AGS cells; type: cell-based; settings: Homo sapiens, rutin 100 µg/mL, non-significant, H2O2 control 47.4%, read-out: Cell viability after H2O2 challenge
Description: Human AGS gastric adenocarcinoma cells (ATCC CRL-1739, American Type Culture Collection, Manassas, VA, USA) were grown as monolayers in a humidified incubator with 5% CO2 in air at 37 °C in HamF-12 medium supplemented with 2 mM L-glutamine and 1.5 g/L sodium bicarbonate. The medium contained 10% heat inactivated fetal bovine serum (FBS), 100 IU/mL penicillin and 100 µg/mL streptomycin. Cells were plated at 25,000 cells/mL in 96-well plates, with 100 µL per well. Cells were counted by means of the trypan blue exclusion assay in a Neubauer chamber. All the cell-based experiments were carried out using a pool of the extracts from different collection years.
Confluent cultures of AGS cells were incubated for 16 h with 100 µL of the different samples at concentrations ranging from 0 to 400 µg extract/mL). The flavonol rutin (100 µg/mL) was included in this assay for comparison purposes. The sample was dissolved in medium supplemented with 2% FBS and antibiotics. Culture medium was completely removed by vacuum aspiration at the end of the incubation, and cells were washed with 100 µL of PBS. […] Cell viability was determined by means of the MTT reduction assay, as described above. […] Each concentration of the assayed samples was evaluated in quintuplicate. Results are expressed as percentage of the 100% viability control.

Sequence of α-glucosidase (P53341 whole entry): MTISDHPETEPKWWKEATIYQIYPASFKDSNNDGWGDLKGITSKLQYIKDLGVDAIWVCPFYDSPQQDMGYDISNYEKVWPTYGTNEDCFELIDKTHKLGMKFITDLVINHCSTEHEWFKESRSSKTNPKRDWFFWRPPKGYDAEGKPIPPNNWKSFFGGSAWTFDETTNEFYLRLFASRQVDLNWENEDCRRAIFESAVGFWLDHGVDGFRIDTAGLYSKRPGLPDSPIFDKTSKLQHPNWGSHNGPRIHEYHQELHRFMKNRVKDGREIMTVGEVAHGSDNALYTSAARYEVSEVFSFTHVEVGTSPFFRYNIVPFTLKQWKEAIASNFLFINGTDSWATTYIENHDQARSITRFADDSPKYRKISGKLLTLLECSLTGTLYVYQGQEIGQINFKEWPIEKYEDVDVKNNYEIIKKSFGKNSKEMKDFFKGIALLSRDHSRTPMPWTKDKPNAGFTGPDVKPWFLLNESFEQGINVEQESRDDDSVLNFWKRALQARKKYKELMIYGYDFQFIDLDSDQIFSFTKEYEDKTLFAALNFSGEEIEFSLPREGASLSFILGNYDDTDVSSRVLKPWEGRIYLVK

Which “α-Amylase Inhibiton” value (α-amylase) does the source give for `CC(C)(O)CC[C@@H](O)[C@](C)(O)[C@H]1CC[C@@]2(O)C3=CC(=O)[C@@H]4C[C@@H](O)[C@@H](O)C[C@]4(C)[C@H]3CC[C@]12C` [20-hydroxyecdysone] here?
Its value is “inactive”.

What about the TEAC assay activity ([1]; isolated compound) of the same molecule?
Its TEAC assay activity is “inactive”.

And the inhibition at 50 µg/mL (α-glucosidase; at a concentration of 50 µg/mL, Sephadex fractions / isolated compounds)?
Its inhibition at 50 µg/mL is 40.1 ± 1.3%.

What about the DPPH assay activity ([2]; isolated compound) of the same molecule?
The DPPH assay activity was “inactive”.

And the ORAC value ([3]; isolated compound)?
The ORAC value was 827.3 ± 30.9 µmol TE/g of sample.

And the “Pancreatic Lipase Inhibition” value (pancreatic lipase)?
The value was “inactive”.

And the FRAP value ([4]; isolated compound)?
The FRAP value was 72.4 ± 7.9 µmol Trolox equivalents/g sample.

What does the source list for `O=c1c(O)c(-c2ccc(O)c(O)c2)oc2cc(O)cc(O)c12` [Quercetin, quercetin, reference compound]?
TEAC ([1]; n = 3, mean ± SD): 8157.9 ± 22.1 µM TE/g XAD7 Extract; DPPH (SC50) ([2]; n = 3, mean ± SD): 7.8 ± 0.3 µg XAD7 Extract/mL; ORAC ([3]; n = 3, mean ± SD): 22561.6 ± 808.8 µmol TE/g XAD7 Extract; FRAP ([4]; n = 3, mean ± SD): 1077.2 ± 16.4 µmol TE/g XAD7 Extract

With `N=C(N)NN` [aminoguanidine, Aminoguanidine] as the molecule, how does the “IC50 of TBARS generation in turkey meat” value [5] read?
Its value is 317.8 ± 20.4 µg/mL.

For `C[C@@H]1O[C@@H](OC[C@H]2O[C@@H](Oc3c(-c4ccc(O)c(O)c4)oc4cc(O)cc(O)c4c3=O)[C@H](O)[C@@H](O)[C@@H]2O)[C@H](O)[C@H](O)[C@H]1O` [rutin, quercetin 3-O-rutinoside], which “α-Amylase Inhibiton” value (α-amylase) is on record?
The value was “inactive”.

And the inhibition at 50 µg/mL (α-glucosidase)?
Its inhibition at 50 µg/mL is 44.8 ± 1.6%.

What about the “Increase of total intracellular antioxidant activity (TAA) vs untreated controls” value (AGS cells [6]) of the same molecule?
Its value is 48.6%.

What about the viability at 100 µg/mL (AGS cells [7]) of the same molecule?
The viability at 100 µg/mL was 46.4%.

And the “Pancreatic Lipase Inhibition” value (pancreatic lipase)?
Its value is “inactive”.
